{
  "source": "patent EP1566447A1",
  "about": "“Glimepiride- and insulin-induced glycosylphosphatidylinositol-specific phospholipase C regulation” (priority 2004, dated 2005)",
  "key": {"rat liver PI-PLC": {"tested_on": "rat liver PI-PLC", "experiment": "selectivity: mammalian PI-PLC assay", "format": "biochemical", "conditions": "50 µM", "protocol": "Hormone-sensitive lipase (HSL) and lipoprotein lipase (LPL) were measured using a radiolabeled triolein droplet emulsion as described in \"Vertesy et al., (2002) Journal Antibiotics 55:480-494\". Pancreatic lipase (PL) was determined by incubation of 0.25 mmol tributyrin in 2 ml of 5 mM Tris/HCl (pH 6.5), 6 mM sodium taurodeoxycholate, 150 mM NaCl, 1 mM CaCl2 with porcine PL and colipase in the same buffer using a recording pH stat (stirring at 1000 rpm at 25°C) with the pH adjusted to 6.5. PC-PLC was assayed by incubation of 0.2 ml of 10 mM dipalmitoyllecithin, 0.1 ml of 10 mM SDC and 0.1 ml of 0.03 M CaCl2 with bacterial PC-PLC (in 50 mM Tris/HCl, pH 7.5, 0.1 % BSA) for 10 min at 37°C. The reaction was terminated by addition of 0.1 ml of 50 % TCA and subsequently of 2.5 ml of […]. After centrifugation (1500xg, 15 min), 0.2-ml portions of the upper methanol/water phase (~ 1.33 ml) was removed, supplemented with 0.5 ml of 60 % HClO4, then heated at 170°C for 1 h and finally analyzed for inorganic phosphate. Mammalian PI-PLC was measured by incubation of 0.1 ml of 10 mM PI, 0.1 ml of 0.8 % sodium deoxycholate, 0.1 % BSA, 0.2 ml of 100 mM sodium borate (pH 7.5) and rat liver PI-PLC for 20 min at 37°C. The reaction was terminated and further processed as described for the PC-PLC. […] Radioactive phosphatidic acid was detected by phosphorimaging. […]"}, "Isolated rat adipocytes": {"tested_on": "Isolated rat adipocytes", "experiment": "localization of lipolytically cleaved and uncleaved GPI-proteins at hcDIGs, IcDIGs and total plasma membranes", "format": "cell-based", "conditions": "GPI-2350 50 µM, insulin 10 nM, glimepiride 20 µM"}, "rat adipocytes": {"tested_on": "rat adipocytes", "experiment": "isoproterenol-induced lipolysis measured as release of NBD-FA", "format": "cell-based", "conditions": "Rattus norvegicus, Adipocyte, given as 'up to', read-out: impairment of insulin inhibition of NBD-FA release", "protocol": "Electroporation was performed as described in \"Müller, G. et al., (2000) Mol. Cell. Biol. 20: 4708-4723\". Lipolysis was determined as release of glycerol or fluorescent NBD-FA from prelabeled and isoproterenol-stimulated adipocytes as described in \"Müller, G. et al., (2003) Biochimie 85: 1245-1256\". Gce1 was detected by photolabeling of solubilized plasma membranes or hc/IcDIGs (10-50 µg protein) with 8-N3-[^32P]cAMP and subsequent phosphorimaging as described in \"Müller, G. et al., (1994) Biochemistry 33: 12149-12159\". 5'-Nuc, aP and AChE activities were measured according to \"Eliakim, R. et al., (1990) Biochim. Biophys. Acta […]\". Protein was determined using the BCA protein determination kit from Pierce (Rockford, IL) and BSA as calibration standard. SDS-PAGE was performed using precast gels (Novex, San Diego, CA; 10 % Bis-Tris resolving gel, morpholinopropanesulfonic acid-SDS running buffer). Lumiimages were evaluated on a Lumilmager using Lumilmager software (Roche Diagnostics). Phosphor- and fluorescence images were processed and quantified using the Storm 860 Phosphorlmager system (Molecular Dynamics, Gelsenkirchen, Germany). Figures were constructed using the Adobe Photoshop software (Adobe Systems, Mountain View, CA). […]"}, "GPI-PLC": {"tested_on": "GPI-PLC", "conditions": "read-out: IC50 for inhibition of the GPI-PLC; isolated intact hcDIGs; Fig. 4 Panels B, D"}, "[1]": {"conditions": "relative to amphiphilic version in PM of basal adipocytes (100)"}, "[2]": {"conditions": "relative to amphiphilic version in hcDIGs of basal adipocytes (100)"}},
  "data": [
    {"smiles": "CCCCCCCCCCCCP1(=O)O[C@@H]2[C@H](O)[C@@H](O)[C@H](O)[C@@H](O)[C@@H]2O1", "note": "(mixture of isomers) [GPI-2350, myo-inositol-1,2-cyclo-dodecylphosphonic acid]", "values": [
      {"measurement": "effect on phospholipase activity", "setting": "rat liver PI-PLC", "result": "not significantly affected"},
      {"measurement": "5'-Nuc hydroph. PM", "setting": "Isolated rat adipocytes; [1]", "result": "3±2", "unit": "arb. units"},
      {"measurement": "Gce1 hydroph. PM", "setting": "Isolated rat adipocytes; [1]", "result": "6±3", "unit": "arb. units"},
      {"measurement": "aP hydroph. PM", "setting": "Isolated rat adipocytes; [1]", "result": "4±3", "unit": "arb. units"},
      {"measurement": "5'-Nuc amphiph IcDIGs", "setting": "Isolated rat adipocytes; [2]", "result": "15±6", "unit": "arb. units"},
      {"measurement": "5'-Nuc amphiph hcDIGs", "setting": "Isolated rat adipocytes; [2]", "result": "112±19", "unit": "arb. units"},
      {"measurement": "5'-Nuc hydroph. IcDIGs", "setting": "Isolated rat adipocytes; [2]", "result": "3±1", "unit": "arb. units"},
      {"measurement": "5'-Nuc hydroph. hcDIGs", "setting": "Isolated rat adipocytes; [2]", "result": "7±3", "unit": "arb. units"},
      {"measurement": "Gce1 amphiph IcDIGs", "setting": "Isolated rat adipocytes; [2]", "result": "28±6", "unit": "arb. units"},
      {"measurement": "Gce1 amphiph hcDIGs", "setting": "Isolated rat adipocytes; [2]", "result": "109±10", "unit": "arb. units"},
      {"measurement": "Gce1 hydroph. IcDIGs", "setting": "Isolated rat adipocytes; [2]", "result": "14±7", "unit": "arb. units"},
      {"measurement": "Gce1 hydroph. hcDIGs", "setting": "Isolated rat adipocytes; [2]", "result": "21±7", "unit": "arb. units"},
      {"measurement": "aP amphiph IcDIGs", "setting": "Isolated rat adipocytes; [2]", "result": "19±13", "unit": "arb. units"},
      {"measurement": "aP amphiph hcDIGs", "setting": "Isolated rat adipocytes; [2]", "result": "117±11", "unit": "arb. units"},
      {"measurement": "inhibition at 50 µM", "setting": "rat adipocytes", "result": "25 to 30", "unit": "%"},
      {"measurement": "IC50", "setting": "GPI-PLC", "result": 1000, "unit": "nM"}
    ]}
  ]
}
